Test results from ChEMBL document CHEMBL5233234, “True or false? Challenges and recent highlights in the development of aspirin prodrugs” (Eur J Med Chem, 2020).

Legend:
[1] = Half life in human plasma measured after 2 days
[2] = Half life in human plasma at 10 uM; format: ADME, cell-free
[3] = Half life of compound in PBS buffer at pH 7.4 at 50 uM by HPLC analysis; format: physicochemical
[4] = Half life in human plasma by LC-MS/MS analysis; format: ADME, cell-free
[5] = Half life of compound in PBS buffer at pH 7.4; format: physicochemical
[6] = Half life in human liver microsomes at 1 uM measured up to 30 mins by LC-MS/MS analysis; format: ADME, Microsome
[7] = Half life in human blood; format: ADME, tissue-based
[8] = Half life in human plasma; format: ADME, cell-free
[9] = Half life of compound in human plasma; format: ADME, cell-free

## CC(=O)Oc1ccccc1C(=O)Oc1ccccc1C=O
[1]
  half-life at 48 h: 15 min

## CC(=O)Oc1ccccc1C(=O)OCOC(=O)c1ccc(OCCCO[N+](=O)[O-])c(OC(=O)CCN)c1
[2]
  half-life at 10 µM: < 1 min
[3]
  half-life at 50 µM: 57 min

## CC(=O)Oc1ccccc1C(=O)O[C@H]1CO[C@H]2[C@@H]1OC[C@H]2O[N+](=O)[O-]
[4]
  t1/2: 0.183 min

## COc1ccccc1COC1(C)OC(=O)c2ccccc2O1 (centres undefined)
[5]
  half-life: 26.7 min

## CCOP(=O)(OCC)OCC(COC(=O)c1ccccc1OC(C)=O)OP(=O)(OCC)OCC (centres undefined)
[6]
  half-life at 1 µM: 28 min

## CC(=O)Oc1ccccc1C(=O)O[C@@H]1CO[C@H]2[C@@H]1OC[C@@H]2OC(=O)c1ccccc1O
[7]
  half-life: 1 min

## CC(=O)Oc1ccccc1C(=O)OC[S+](C)[O-] (centres undefined)
[8]
  half-life: 14 min

## CC(=O)Oc1ccccc1C(=O)O[C@H]1CO[C@H]2[C@@H]1OC[C@H]2OC(=O)c1ccccc1OC(C)=O
[9]
  half-life: 1 min
